Here are results for 2 molecules from patent US12252457B2, “Compositions and methods for reducing tactile dysfunction, anxiety, and social impairment” (President and Fellows of Harvard College, priority 2018, dated 2025).

Counter-ions that a name gives are not always drawn.

One assay has as its target T1, Transporter, GABA (Rattus norvegicus, UniProt P23978).
T1 construct: tissue Eurofins Panlabs 226400; host or cells: rat brain membranes (own knowledge of the vendor's assay and of the cited Shank et al. 1990 method)
In words: GABA transporter radioligand binding assay (Cat # 226400). Here is the method: The activity of compound Compound 5 was evaluated in Radioligand Binding assays. Methods employed herein have been adapted from the scientific literature to maximize reliability and reproducibility. Reference standards were run as an integral part of each assay to ensure the validity of the results obtained. Where presented, IC50 values were determined by a non-linear, least squares regression analysis using MathIQ™ (ID Business Solutions Ltd., UK). Where inhibition constants (K) are presented, the Ki values were calculated using the equation of Cheng and Prusoff (Cheng, Y., Prusoff, W. H., Biochem. Pharmacol. 22:3099-3108, 1973) using the observed IC50 of the tested compound, the concentration of radioligand employed in the assay, and the historical values for the KD of the ligand (obtained experimentally at Eurofins Panlabs, Inc.). Where presented, the Hill coefficient (nH), defining the slope of the competitive binding curve, was calculated using MathIQ™. […] Where IC50, Ki and/or nH data are presented without Standard Error of the Mean (SEM), data are insufficient to be quantitative.
Biochemical assay results are presented as the percent inhibition of specific binding or activity. All other results are expressed in terms of the quantitation method of that assay. For primary assays, only the lowest concentration with a significant response, judged by the criteria of the assay, is shown in this summary. […] Unless otherwise requested, primary screening in duplicate with quantitative data (e.g., IC50±SEM, Ki ±SEM and nH) are shown where applicable for individual requested assays.
J Neurochem. 54:2007-2015.

The subject of assay [1] is low-threshold mechanoreceptor neurons (LTMRs). The assay is described as follows: In vivo multiunit electrode recordings in the L4 DRG. On the set-up: species or system mouse. The source says: FIGS. 20A-20O show isoguvacine attenuates tactile sensitivity through reduced excitability of peripheral, low-threshold mechanosensory neurons. FIG. 20A: Diagram for in vivo dorsal root ganglion (DRG) multi-unit electrode recordings, showing tetrode placement into the left L4 ganglia. FIG. 20B: Activity traces of two putative neurons (units) in response to a brush stimulus. FIG. 20C: Activity traces of two putative neurons (units) in response to a light air puff stimulus (1 PSI). FIGS. 20D-20G: Example unit identified during the spike sorting process. Average waveform at each electrode site (FIG. 20D, FIG. 20E), and inter-spike interval (FIG. 20F, FIG. 20G). FIG. 20H: Representative activity raster plots for multiple putative LTMRs in multiple mice over the duration of a recording experiment in controls and Advillin^Cre; Gabrb3^f/f mice. Mice received a subcutaneous injection of either saline or isoguvacine (2 mg/kg) during the experiment, and activity of light-touch responsive units in response to a light brush stimulus was assessed over a 90-minute period. FIG. 20I: Average firing frequency of LTMRs over the duration of each recording experiment, following subcutaneous injection of either saline or isoguvacine (2 mg/kg). Repeated measures, two-way ANOVA with post-hoc Dunnett's test, *p<0.05. FIG. 20J: Representative activity raster plots for putative LTMRs in multiple mice over the duration of recordings in controls and Shank3B^+/− mice. Mice received a subcutaneous injection of either saline or isoguvacine (2 mg/kg) during the experiment, and activity of light-touch responsive units was assessed over a 90-minute period. FIG. 20K: Average baseline spike rate of LTMRs in response to brush or air puff stimulus, in control and Shank3B^+/− mice. Student's t-test, *p<0.05. FIG. 20L: Average firing frequency of LTMRs over the duration of each recording experiment, following subcutaneous injection of either saline or isoguvacine (2 mg/kg). Repeated measures, two-way ANOVA with post-hoc Dunnett's test, *p<0.05. […] Two-way ANOVA with post-hoc Sidak's test, *, p<0.05. FIG. 20N: Response to a light air puff stimulus alone in mice following i.p. administration of either saline or 2 mg/kg isoguvacine treatment. Responses are expressed as percent of startle response to a 125 dB noise. Two-way ANOVA with post-hoc Sidak's test, *, p<0.05. FIG. 20O: Magnitude of startle response to a 125 dB noise in mice following i.p. administration of either saline or 2 mg/kg isoguvacine treatment. Responses are expressed as percent of startle response to a 125 dB noise. Two-way ANOVA with post-hoc Sidak's test, *, p<0.05.
To test the hypothesis that isoguvacine exerts its effects by acting directly on primary somatosensory neurons, electrophysiological recordings were performed both in vitro and in vivo. DRG cultures from Mecp2 and Shank3 mutant and control littermates were first produced to assess excitability of these neurons in vitro using whole cell patch-clamp recordings. […] It was next asked whether administration of isoguvacine would reduce mechanosensory neuron sensitivity in vivo by performing multiunit electrode recordings in the L4 DRG of urethane- and isoflurane-anesthetized mice (FIG. 20A). […] Once LTMR units were identified, animals were administered a subcutaneous injection of either saline vehicle or isoguvacine (2 mg/kg) and then sensitivity and firing frequency in response to tactile stimuli were monitored over a 90-minute period for each identified unit. […]

Regarding `NC1C=C(C(=O)O)CCC1` (stereo not drawn) [Compound 5, 3-aminocyclohex-1-enecarboxylic acid hydrochloride], on Transporter, GABA, the “GABA transporter inhibition (in words)” value is on record as “potent GABA transporter inhibitor”, the IC50 is 28.1 µM, the Ki was 27.5 µM and the inhibition at 30 µM turned out to be 52%. Moreover, the inhibition at 0.1 µM at Transporter, GABA (Conc. 0.1 μM) is -10%. The inhibition at 0.3 µM on Transporter, GABA (Conc. 0.3 μM) came to 3%. For the same molecule, on Transporter, GABA (Conc. 1 μM), the inhibition at 1 µM was -1%. Further, at Transporter, GABA (Conc. 3 μM), the inhibition at 3 µM is 2%. Moreover, the inhibition at 10 µM at Transporter, GABA (Conc. 10 μM) is 19%. Further, the inhibition at 100 µM on Transporter, GABA (Conc. 100 μM) was 86%. For the same molecule, at Transporter, GABA (Conc. 300 μM), the inhibition at 300 µM came to 97%. Besides, on Transporter, GABA (Conc. 1 mM), the inhibition at 1000 µM was found to be 104%. Further, at Transporter, GABA (slope of competitive binding curve), the “nH (Hill coefficient)” value is 1.47.
In the case of `O=C(O)C1=CCNCC1` [Isoguvacine, isoguvacine], in assay [1] (2 mg/kg subcutaneous), the “proprioceptor sensitivity and firing” value is reported as “unaffected”; the “response thresholds to light touch stimuli and spiking of glabrous- and hairy-skin innervating Aβ LTMRs” value is “increased response thresholds to light touch stimuli and reduced spiking”. Further, the “tactile stimulus-evoked LTMR sensitivity” value in assay [1] (Advillin^Cre, Gabrb3^f/f mice, 2 mg/kg subcutaneous) is recorded as “no changes in tactile stimulus-evoked LTMR sensitivity”. Moreover, in assay [1] (Shank3B and control littermates, 2 mg/kg subcutaneous), the LTMR firing entry is “attenuated firing”. For the same molecule, the “tactile stimulus-evoked (brush or air puff) responsivity of LTMRs” value in assay [1] (control mice, sixty minutes after 2 mg/kg subcutaneous) is recorded as “significantly decreased”.

What is called IC50 is the concentration that gives 50% inhibition. Higher therefore signals weaker potency in that assay. A word on the Ki: it is a measure of affinity in units of concentration, obtained from inhibition or displacement. Read a low Ki as tighter binding. Broadly, the inhibition is the change of the read-out against control, counted positive when it falls.
